Test: Acute toxicity by the Weill method
Details: in vivo, mouse, read-out: LD₅₀
Experimental: The acute toxicity of the compounds according to the invention was studied on the mouse by the Weill method (Weill C.S. Biomed. J. 8 249 (1952)). […] For the compound of formula (I) wherein n=1 and R, R¹ equal to H, the LD₅₀ is higher than 2000 mg/kg.

For `C[N+](C)(C)CCOP(=O)([O-])OP(=O)(O)OCC(O)CO` (stereo not drawn) [choline α-glyceryl disphosphate], the LD50 was greater than 2000 mg/kg.

From EP0329053A1, “Choline esters of glycerophosphoric acids” (MAGIS FARMACEUTICI S.p.A., priority 1988, dated 1989)
